For this data set the following is noted: instrument: TW, calibrated with polyalanine and drug standards.

Values joined by “and” are separate entries in the source; they are usually repeats but may differ in a detail not shown here. Equal values may be shown once.

`COc1ccc2c(c1)OCC(Cc1ccc(O)c(OC)c1)C2=O` (stereo not drawn) [DEOXYSAPPANONE B 7,3'-DIMETHYL ETHER]: the “collision cross section (N2)” value ([M+H]+) was 171.2 Å².

Regarding `COc1ccc2c(c1)OCC(Cc1ccc(OC)c(O)c1)C2=O` (stereo not drawn) [DEOXYSAPPANONE B 7,4'-DIMETHYL ETHER], the “collision cross section (N2)” value ([M+H]+) amounted to 170.6 Å².

On to `COc1ccc(-c2cc(C(F)F)nn2-c2ccc(S(N)(=O)=O)cc2)cc1F` [DERACOXIB], for which the “collision cross section (N2)” value ([M+H]+) amounted to 189.9 Å².

Take `COc1cc(OC)c2c(OC)c(-c3ccc4c(c3)OCO4)c(=O)oc2c1` [DERRUSNIN]: the “collision cross section (N2)” value ([M+H]+) was 176.7 Å².

For `C=C[C@@]1(C)CC(=O)[C@@]2(O)[C@](C)(O1)[C@@H](O)[C@@H](O)C1C(C)(C)CC[C@H](O)[C@@]12C` (stereo partly drawn) [DESACETYLCOLFORSIN], the “collision cross section (N2)” value ([M+Na]+) is reported as 185.6 Å².

As to `CC1(C)O[C@@H]2C[C@H]3[C@@H]4CCC5=CC(=O)C=C[C@]5(C)[C@H]4[C@@H](O)C[C@]3(C)[C@]2(C(=O)CO)O1` [DESONIDE], the “collision cross section (N2)” value ([M+H]+) was 198.5 Å².

Take `CC(=O)OCC(=O)[C@H]1CC[C@H]2[C@@H]3CCC4=CC(=O)CC[C@]4(C)[C@H]3CC[C@]12C` [DESOXYCORTICOSTERONE ACETATE]: the “collision cross section (N2)” value ([M+H]+) amounted to 193.8 Å².

As for `CC1CC2C3CCC4=CC(=O)C=CC4(C)C3(F)C(O)CC2(C)C1C(=O)CO` (stereo not drawn) [DESOXYMETASONE], where the note is “[M+H]+”, the “collision cross section (N2)” value came out at 186.4 Å².

With `C=CCSSSCC=C` [DIALLYL TRISULFIDE], the “collision cross section (N2)” value ([M+H]+) is recorded as 126.9 Å².

Consider `COP(=O)(OC)OC=C(Cl)Cl` [DICHLORVOS], for which the “collision cross section (N2)” value ([M+H]+) is 138.7 Å².

`CCCc1cc(OC)c2c(c1)OCO2` [DIHYDROMYRISTICIN]: the “collision cross section (N2)” value ([M+H]+) worked out at 128.7 Å².

In the case of `Cc1cccc2c3c(ccc12)C1=C(C(=O)C3=O)[C@@H](C)CO1` [DIHYDROTANSHINONE I], the “collision cross section (N2)” value ([M+H]+) was found to be 159.4 Å².

`CN(C(=O)C(Cl)Cl)c1ccc(OC(=O)c2ccco2)cc1` [DILOXANIDE FUROATE]: for the setting “[M+H]+”, the “collision cross section (N2)” value came to 171.7 Å².

As for `COC(=O)NC(=S)Nc1ccccc1NC(=S)NC(=O)OC` [DIMETHYL 4,4-o-PHENYLENE-BIS (3-THIOPHANATE)], the “collision cross section (N2)” value ([M+H]+) was 173.3 Å².

Regarding `COc1ccc(C(=O)c2ccccc2O)c(O)c1` [DIOXYBENZONE], where the note is “[M+H]+”, the “collision cross section (N2)” value turned out to be 150 Å².

For `OCCN(CCO)c1nc(N2CCCCC2)c2nc(N(CCO)CCO)nc(N3CCCCC3)c2n1` [DIPYRIDAMOLE], for the setting “[M+H]+”, the “collision cross section (N2)” value turned out to be 223.9 Å².

As for `CC(=O)Oc1cccc(C(=O)O)c1OC(C)=O` [DIPYROCETYL], the “collision cross section (N2)” value ([M+Na]+) is 150 Å².

In the case of `CCN(CC)C(=S)SSC(=S)N(CC)CC` [DISULFIRAM], the “collision cross section (N2)” value ([M+H]+) amounted to 165.5 Å².

On to `COc1ccc2c(c1OC)OC[C@@H](c1ccc(OC)c(OC)c1OC)C2` [DUARTIN, DIMETHYL ETHER], for which the “collision cross section (N2)” value ([M+Na]+) is 183.2 Å².

In the case of `CCn1cc(C(=O)O)c(=O)c2cc(F)c(N3CCNCC3)nc21` [ENOXACIN], the “collision cross section (N2)” value ([M+H]+) is 168.1 Å² and 184.7 Å².

For `CCN1CCN(c2cc3c(cc2F)c(=O)c(C(=O)O)cn3C2CC2)CC1` [ENROFLOXACIN], the “collision cross section (N2)” value ([M+H]+) is 190.6 Å².

Regarding `CCC(C)C(=O)O[C@@H]1C[C@@]2(C)[C@H](c3ccoc3)OC(=O)CC23OC2(C)OC34[C@H](OC(=O)C(C)C)[C@@]3(O)[C@@H](OC(=O)C5(C)OC5C)[C@@]5(C)C[C@]3(O)[C@@](C)([C@H]5CC(=O)OC)C14O2` (stereo partly drawn) [ENTANDROPHRAGMIN], under “[M+H]+”, the “collision cross section (N2)” value is reported as 259.8 Å².

Turning to `O=C(O[C@@H]1Cc2c(O)cc(O)cc2O[C@@H]1c1ccc(O)c(O)c1)c1cc(O)c(O)c(O)c1` [EPICATECHIN MONOGALLATE], the “collision cross section (N2)” value ([M+H]+) is 202.9 Å².

`CCN(CC)C(=O)c1ccc(O)c(OC)c1` [ETHAMIVAN]: the “collision cross section (N2)” value ([M+H]+) is 149 Å².

Take `CCc1cc(C(N)=S)ccn1` [ETHIONAMIDE]: the “collision cross section (N2)” value ([M+H]+) was 135.8 Å².

For `CCOc1ccc2c(c1)C(C)=CC(C)(C)N2` [ETHOXYQUIN], the “collision cross section (N2)” value ([M+H]+) is listed as 152.6 Å².

`CCOC(=O)c1ccc(O)cc1` [ETHYL PARABEN]: the “collision cross section (N2)” value ([M+H]+) came out at 125.4 Å².

`CCOC(=O)c1cncn1C(C)c1ccccc1` (stereo not drawn) [ETOMIDATE]: the “collision cross section (N2)” value ([M+H]+) is listed as 155.9 Å².

Regarding `CC(=O)OCC(CCn1cnc2cnc(N)nc21)COC(C)=O` [FAMCICLOVIR], the “collision cross section (N2)” value ([M+H]+) is given as 168.4 Å².

In the case of `Cc1nc(-c2ccc(OCC(C)C)c(C#N)c2)sc1C(=O)O` [FEBUXOSTAT], for the setting “[M+H]+”, the “collision cross section (N2)” value came to 180.6 Å².

For `COC(=O)Nc1nc2ccc(Sc3ccccc3)cc2[nH]1` [FENBENDAZOLE], the “collision cross section (N2)” value ([M+H]+) was determined as 170.8 Å².

Regarding `CCC(C(N)=O)c1ccccc1` (stereo not drawn) [FENBUTYRAMIDE], the “collision cross section (N2)” value ([M+H]+) was determined as 135.8 Å².

Regarding `CC1(C)OC(=O)C(OCC2CC2)=C1c1ccc(S(C)(=O)=O)cc1` [FIROCOXIB], where the note is “[M+H]+”, the “collision cross section (N2)” value is given as 181.1 Å².

For the compound `COC(=O)C[C@H]1C(C)(C)[C@H](OC(C)=O)[C@@H]2CC3=C4CC(=O)O[C@@H](c5ccoc5)[C@]4(C)CC[C@@H]3C1(C)C2=O` [FISSINOLIDE], under “[M+H]+”, the “collision cross section (N2)” value is 213.3 Å².

In the case of `OC(Cn1cncn1)(Cn1cncn1)c1ccc(F)cc1F` [FLUCONAZOLE], for the setting “[M+H]+”, the “collision cross section (N2)” value came to 163.4 Å².

Take `Nc1[nH]c(=O)ncc1F` [FLUCYTOSINE]: the “collision cross section (N2)” value ([M+H]+) is 118.4 Å².

Turning to `COc1ccc(-c2coc3cc(O)ccc3c2=O)cc1` [FORMONONETIN], under “[M+H]+”, the “collision cross section (N2)” value came out at 156.8 Å².

For `CCOC(=O)c1ncn2c1CN(C)C(=O)c1cc(F)ccc1-2` [FUMAZENIL], for the setting “[M+H]+”, the “collision cross section (N2)” value is on record as 165.6 Å².

For the compound `O=C1OCCN1/N=C/c1ccc([N+](=O)[O-])o1` [FURAZOLIDONE], under “[M]+”, the “collision cross section (N2)” value was 144.2 Å².

`NS(=O)(=O)c1cc(C(=O)O)c(NCc2ccco2)cc1Cl` [FUROSEMIDE]: for the setting “[M+H]+”, the “collision cross section (N2)” value amounted to 169.3 Å².

In the case of `CC(C)=CCC[C@]1(C)C=Cc2c(O)c3c(c(CC=C(C)C)c2O1)O[C@]12C(=C[C@@H]4C[C@H]1C(C)(C)O[C@@]2(C/C=C(/C)C(=O)O)C4=O)C3=O` [GAMBOGIC ACID], the “collision cross section (N2)” value ([M+H]+) came to 239 Å².

For the compound `N[C@@H](CCC(=O)N[C@@H](CS)C(=O)NCC(=O)O)C(=O)O` [GLUTATHIONE], where the note is “[M+H]+”, the “collision cross section (N2)” value was found to be 165.7 Å².

In the case of `C[C@H](CCC(=O)NCC(=O)O)[C@H]1CC[C@H]2[C@@H]3[C@H](O)C[C@@H]4C[C@H](O)CC[C@]4(C)[C@H]3C[C@H](O)[C@]12C` [GLYCOCHOLIC ACID], the “collision cross section (N2)” value came out at 205.2 Å² ([M+H]+) and 200.8 Å² ([M+Na]+).

For the compound `O=c1c(O)c(-c2ccc(O)c(O)c2)oc2c(O)c(O)cc(O)c12` [GOSSYPETIN], the “collision cross section (N2)” value ([M+H]+) is recorded as 165.9 Å².

For `O=c1c(O)c(-c2ccc(O)c(O)c2)oc2c(O[C@@H]3O[C@H](CO)[C@@H](O)[C@H](O)[C@H]3O)c(O)cc(O)c12` [GOSSYPIN], the “collision cross section (N2)” value ([M+H]+) was 199.6 Å².

On to `CN(C)Cc1c[nH]c2ccccc12` [GRAMINE], for which the “collision cross section (N2)” value ([M+H]+) is on record as 134.9 Å².

Turning to `COC1=CC(=O)C[C@@H](C)[C@]12Oc1c(Cl)c(OC)cc(OC)c1C2=O` [GRISEOFULVIN], for the setting “[M+H]+”, the “collision cross section (N2)” value came to 178.6 Å².

Consider `CC1=C(CCC(=O)O)c2cc3nc(cc4[nH]c(cc5[nH]c(cc1n2)c(C)c5C(C)O)c(C)c4C(C)O)C(C)=C3CCC(=O)O` (stereo not drawn) [HAEMATOPORPHYRIN], for which the “collision cross section (N2)” value ([M+H]+) was 248.4 Å².

Take `CC1(C)O[C@@H]2C[C@H]3[C@@H]4CCC5=CC(=O)CC[C@]5(C)[C@@]4(F)[C@@H](O)C[C@]3(C)[C@]2(C(=O)CCl)O1` [HALCINONIDE]: for the setting “[M+H]+”, the “collision cross section (N2)” value came to 200.9 Å².

`COc1ccc2c(c1)[nH]c1c(C)nccc12` [HARMINE]: for the setting “[M+H]+”, the “collision cross section (N2)” value is given as 144.5 Å².

Take `COc1ccc([C@@H]2CC(=O)c3c(O)cc(O)cc3O2)cc1O` [HESPERETIN]: the “collision cross section (N2)” value ([M+H]+) is recorded as 169.1 Å².

Consider `COc1ccc([C@@H]2CC(=O)c3c(O)cc(O[C@@H]4O[C@H](CO[C@@H]5O[C@@H](C)[C@H](O)[C@@H](O)[C@H]5O)[C@@H](O)[C@H](O)[C@H]4O)cc3O2)cc1O` [HESPERIDIN], for which the “collision cross section (N2)” value ([M+Na]+) was determined as 227 Å².

`COc1cc(O)c2c(=O)cc(C)oc2c1CC=C(C)C` [HETEROPEUCENIN, METHYL ETHER]: the “collision cross section (N2)” value ([M+H]+) was determined as 161.7 Å².

`COc1ccc(-c2oc3cc(OC)c(OC)c(OC)c3c(=O)c2OC)cc1OC` [HEXAMETHYLQUERCETAGETIN]: the “collision cross section (N2)” value ([M+H]+) is given as 191.2 Å².

In the case of `CCCCCCc1ccc(O)cc1O` [HEXYLRESORCINOL], the “collision cross section (N2)” value ([M+H]+) was 129 Å².

On to `C[C@]12CCC(=O)C=C1CC[C@@H]1[C@@H]2[C@@H](O)C[C@@]2(C)[C@H]1CC[C@]2(O)C(=O)COC(=O)CCC(=O)O` [HYDROCORTISONE HEMISUCCINATE], for which the “collision cross section (N2)” value ([M+H]+) was found to be 212.4 Å².

With `CCCCC(=O)O[C@]1(C(=O)CO)CC[C@H]2[C@@H]3CCC4=CC(=O)CC[C@]4(C)[C@H]3[C@@H](O)C[C@@]21C` [HYDROCORTISONE VALERATE], where the note is “[M+H]+”, the “collision cross section (N2)” value is given as 212.5 Å².

Take `C[C@]12CCC(=O)C=C1CC[C@@H]1[C@@H]2[C@@H](O)C[C@@]2(C)[C@H]1CC[C@]2(O)C(=O)CO` [HYDROCORTISONE]: the “collision cross section (N2)” value ([M+H]+) is 185.1 Å².

For `CC(C)Cc1ccc(C(C)C(=O)O)cc1` (stereo not drawn) [IBUPROFEN], the “collision cross section (N2)” value ([M+H]+) was found to be 144 Å².

For `COc1ccc(-c2oc3c(CC=C(C)C)c(O[C@@H]4O[C@H](CO)[C@@H](O)[C@H](O)[C@H]4O)cc(O)c3c(=O)c2O[C@@H]2O[C@@H](C)[C@H](O)[C@@H](O)[C@H]2O)cc1` [ICARIIN], the “collision cross section (N2)” value ([M+H]+) stood at 260.8 Å².

As for `O=P1(NCCCl)OCCCN1CCCl` (stereo not drawn) [IFOSFAMIDE], the “collision cross section (N2)” value ([M+H]+) was 147 Å².

`COc1ccc2c(c1)c(CC(=O)O)c(C)n2C(=O)c1ccc(Cl)cc1` [INDOMETHACIN]: under “[M+H]+”, the “collision cross section (N2)” value was 179 Å².

(Values after the C3SDB collision cross section collection.)
